Experimental data as given in patent publication US11147796B2, “Agent for preventing or ameliorating hearing impairment” (Tohoku University, priority 2017, dated 2021).

Assays:
outer hair cells = assay: Survival rate of outer hair cells in cultured inner ear with cisplatin; type: cell-based, C57BL/6J mouse; details: 48 hours
Description: (§1) In the following Examples 2, 3, and 5, “m.1555A>G mutant” cells were obtained by skin reproductive to a patient having “m.1555A>G mutation” to obtain dermal fibroblasts, then 10% Primary culture was carried out in DMEM (low glucose) culture solution (manufactured by Nacalai Tesque, Inc) containing FBS (Fetal bovine serum) under the condition of 5% CO2/20% O2, at 37° C. and isolated. In the following Examples 4 and 5, the inner ear culture was carried out in DMEM (high glucose) culture medium containing 10% FBS (Fetal bovine serum) under the condition of 5% CO2/20% O2, at 37° C.
[1] The inner ear of C57BL/6J mouse (hereinafter referred to as “P3 mouse”) on the third day after birth was isolated and cultured in a culture solution for 24 hours.
[2] […] Thereafter, washing with TBS (TBST) solution containing 0.3% Triton X-100 for 5 minutes was repeated twice, followed by taking photograph with a fluorescence microscope (BZ-9000, manufactured by Keyence) and observed using BZ-H1 software (manufactured by Keyence). From the obtained image, the number of cells and the number of damaged cells, each of which has a shape of 200 μm each corresponding to each part of the apex turn, the media turn, and the basilar turn, were measured and 3 parts of the cochlea (apex, media, basilar) were calculated from the survival rate (%) of the outer hair cells and the inner hair cells. […]

inner ear cells = assay: Amount of ATP production in cultured inner ear; type: cell-based, mouse; details: compound 10 μM; 3 hour results
Description: as §1
[1] The inner ear of P3 mice was isolated and cultured in culture solution for 24 hours.
[2] The compound #5 synthesized in Example 1 was mixed in the culture solution to be 10 μM and cultured for various times (3 hours, 6 hours, and 12 hours). […] [3] The concentration of ATP in the culture solution was measured with “cellular” ATP assay reagent (manufactured by Toyo Binet).

O=C(CC(C(=O)O)c1c[nH]c2ccccc12)c1ccc(F)cc1F (stereo not drawn) [compound #5, 4-(2,4-Difluorophenyl)-2-(1H-indol-3-yl)-4-oxo-butanoic Acid]
survival rate of the outer hair cells (outer hair cells; cisplatin 10 μM, compound 0, 1, 5, 10, 50 μM): increases in a concentration-dependent manner | survival rate of the outer hair cells (outer hair cells; compound 10 μM, cisplatin 0, 5, 7.5, 10, 15, 20 μM, apex, media, basilar): increased as compared with the DMSO-treated group | amount of ATP production (inner ear cells): increases
